Laboratory results from article PMC9030254, “Target Hopping from Protein Kinases to PXR: Identification of Small-Molecule Protein Kinase Inhibitors as Selective Modulators of Pregnane X Receptor from TüKIC Library” (Cells, 2022).

Experiments:
PXR(S208W/S247W/C284W) = target: T1, PXR(S208W/S247W/C284W) (Homo sapiens, UniProt O75469, C284W/S208W/S247W); assay: LBP-filled PXR mutant CYP3A4 reporter assay; format: cell-based; details: HepG2, 10 µM, 24 h
T1 construct: expressed in transfected cells; host or cells: HepG2
T1 sequence (O75469 whole entry S208W/S247W/C284W): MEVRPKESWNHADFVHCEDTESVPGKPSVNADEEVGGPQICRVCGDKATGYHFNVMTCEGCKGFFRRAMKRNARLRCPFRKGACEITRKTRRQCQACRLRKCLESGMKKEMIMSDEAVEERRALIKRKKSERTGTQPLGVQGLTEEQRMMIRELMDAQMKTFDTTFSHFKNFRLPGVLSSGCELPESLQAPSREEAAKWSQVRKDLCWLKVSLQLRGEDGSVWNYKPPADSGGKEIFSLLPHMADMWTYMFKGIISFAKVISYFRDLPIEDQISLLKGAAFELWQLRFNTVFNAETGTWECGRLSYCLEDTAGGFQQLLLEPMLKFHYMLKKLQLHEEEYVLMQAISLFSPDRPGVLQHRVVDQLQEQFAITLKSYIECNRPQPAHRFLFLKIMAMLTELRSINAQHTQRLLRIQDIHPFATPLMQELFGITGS
Procedure: For testing nuclear receptor selectivity and LBP-filled PXR mutant activation, transient batch transfection was conducted as above, but with HepG2 cells and the following plasmids, with amounts per well of 0.23–0.27 µg pGL4-CYP3A4(-7830Δ7208-364) or pGL3(DR3)3Tk (as reporter for VDR), 0.01 µg pMetLuc2control, and 0.03 µg either CAR1, CAR3, VDR, or PXR(S208W/S247W/C284W) expression plasmids. In addition, 0.03 µg RXRα expression plasmid was added to CAR3 transfections. Metridia luciferase activity was measured from 10 µL of medium supernatant after adding 100 µL Renilla luciferase assay solution.
Figure 5 PXR binding of phenylaminobenzosuberones is indicated by cellular PXR LBD assembly assay and inhibition of LBP-filled PXR mutant (A) Novel compounds induce PXR LBD assembly. […] (B) Effects of novel compounds on LBP-filled PXR mutant. HepG2 cells were transiently transfected with CYP3A4 reporter and expression plasmid encoding PXR(S208W/S247W/C284W) and treated as described above. […] Statistically significant differences are illustrated with asterisks. ** p ˂ 0.01, compared to respective treatments with DMSO analyzed by repeated measures one-way ANOVA with Dunnett’s multiple comparisons test.

EPHB2 = target: T2, EPHB2 (Homo sapiens, UniProt P29323); assay: Kinase profiling; format: biochemical
T2 construct: purchased ProQinase (Freiburg, Germany)
T2 sequence (P29323 19-1055): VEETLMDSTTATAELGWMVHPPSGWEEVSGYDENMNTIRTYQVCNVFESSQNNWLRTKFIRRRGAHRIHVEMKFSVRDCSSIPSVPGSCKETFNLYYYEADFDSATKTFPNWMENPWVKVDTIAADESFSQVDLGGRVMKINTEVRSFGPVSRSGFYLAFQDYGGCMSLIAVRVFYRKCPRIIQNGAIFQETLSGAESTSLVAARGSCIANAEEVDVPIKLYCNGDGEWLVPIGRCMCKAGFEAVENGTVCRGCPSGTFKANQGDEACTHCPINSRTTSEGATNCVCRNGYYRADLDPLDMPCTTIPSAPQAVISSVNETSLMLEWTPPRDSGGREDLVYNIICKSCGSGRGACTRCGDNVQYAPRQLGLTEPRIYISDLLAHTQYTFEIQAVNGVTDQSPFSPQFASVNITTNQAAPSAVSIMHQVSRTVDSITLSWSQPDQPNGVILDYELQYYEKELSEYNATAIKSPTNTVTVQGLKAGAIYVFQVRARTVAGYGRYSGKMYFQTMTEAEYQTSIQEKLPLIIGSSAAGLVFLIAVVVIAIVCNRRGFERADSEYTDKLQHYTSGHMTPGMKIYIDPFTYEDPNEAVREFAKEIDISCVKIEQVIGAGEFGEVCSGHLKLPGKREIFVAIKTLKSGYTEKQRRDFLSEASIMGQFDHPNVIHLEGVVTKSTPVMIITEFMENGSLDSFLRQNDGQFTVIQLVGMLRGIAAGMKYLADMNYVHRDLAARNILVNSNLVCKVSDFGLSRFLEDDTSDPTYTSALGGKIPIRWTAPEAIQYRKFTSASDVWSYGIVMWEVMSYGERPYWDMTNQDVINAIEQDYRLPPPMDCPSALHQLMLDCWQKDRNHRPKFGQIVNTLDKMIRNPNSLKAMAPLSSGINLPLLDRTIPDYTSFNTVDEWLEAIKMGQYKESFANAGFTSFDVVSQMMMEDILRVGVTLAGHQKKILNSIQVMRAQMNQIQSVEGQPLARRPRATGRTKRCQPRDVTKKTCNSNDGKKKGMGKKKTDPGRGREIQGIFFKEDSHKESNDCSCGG
Procedure: The analysis was performed by ProQinase (Freiburg, Germany).

ABCB1 = assay: PXR target gene mRNA expression in differentiated HepaRG cells (RT-qPCR); format: cell-based; details: 48 h
Procedure: (§1) HepaRG cells (Biopredic, Rennes, France) were cultivated in phenol red-free William’s E medium, supplemented with 10% FBS, 2 mM glutamine, 100 U/mL penicillin, 100 µg/mL streptomycin, 5 µg/mL insulin, and 50 µM hydrocortisone. For gene expression analyses, 1.0 × 10^5 cells were seeded per well of a 12-well plate. After reaching confluence, growth medium was supplemented with 2% DMSO, and cells were further cultivated for 2 weeks for differentiation into hepatocytes, as described previously. Afterward, cells were adapted to induction medium (growth medium with FBS reduced to 2% and 0.2% DMSO) for 48 h. Then chemical treatment was started for another 48 h, with daily medium change.
(§2) Total RNA was prepared from LS174T and HepaRG cells using the NucleoSpin RNA kit (Macherey-Nagel, Düren, Germany). RNA integrity was analyzed by formaldehyde-agarose gel electrophoresis. First strand cDNA was synthesized as described earlier. Relative quantification analyses were conducted with TaqMan RT-PCR utilizing the BioMark HD system and FLEX Six Gene Expression Integrated Fluidic Circuits (Fluidigm, South San Francisco, CA, USA) as described previously. TaqMan gene expression assays were either the commercially available predesigned assays Hs00184500_m1 (ABCB1) and Hs00604506_m1 (CYP3A4) (Thermo Fischer Scientific) or have been described previously: CYP2B6 [31] and 18S rRNA [39]. Data were analyzed as described previously. Gene expression levels were normalized to respective 18S rRNA levels.
(§3) Figure 7 Effects of novel PXR ligands on endogenous PXR target gene expression. […] (B) HepaRG cells were treated with 0.2% DMSO, 10 µM RIF, or 10 µM compound 100 or cotreated with 10 µM RIF and compound 100 for 48 h. mRNA expression was measured as described above.

CYP3A4 = assay: as above; format: cell-based; details: 10 µM, 48 h
Procedure: as §1, §2, §3

CYP2B6 = assay: as above; format: cell-based; details: 10 µM, 48 h
Procedure: as §1, §2, §3

Row | SMILES | suppression of constitutive activity of LBP-filled PXR mutant (PXR(S208W/S247W/C284W)) | Residual activity (EPHB2; 1.0E-05 M) | Residual activity (EPHB2; 1.0E-06 M) | effect on rifampicin-induced expression of ABCB1 (ABCB1; 10 µM compound + 10 µM rifampicin) | expression of ABCB1 mRNA (ABCB1; 10 µM) | expression of CYP3A4 mRNA (CYP3A4) | expression of CYP2B6 mRNA (CYP2B6)
1 | Cc1ccc(NC(=O)Cc2ccccc2)cc1Nc1ccc2c(c1)CCCCC2=O [Compound 73] | 40% |  |  |  |  |  | 
2 | O=C(Cc1ccccc1)Nc1ccc(F)c(Nc2ccc3c(c2)CCCCC3=O)c1 [Compound 100] | did not affect constitutive activity of the PXR mutant | 86 % of control | 93 % of control | only minor inhibitory effects | induced the expression of ABCB1, CYP2B6, and CYP3A4 | induced the expression of ABCB1, CYP2B6, and CYP3A4 | induced the expression of ABCB1, CYP2B6, and CYP3A4
3 | O=C(Nc1ccc(F)c(Nc2ccc3c(c2)CCCCC3=O)c1)c1cccc(F)c1 [Compound 109] |  | 84 % of control | 86 % of control |  |  |  | 
